Results from paper PMC5956890 (Journal of medicinal chemistry, 2017).
Entries after “also recorded” stand apart in the source; their conditions may differ.

Tests used:
hA2AAR = settings: cited from earlier work
PPARδ [1] = target: T1, PPARδ (Homo sapiens, UniProt Q03181); experiment: TR-FRET competitive binding assay PPARδ; settings: concentration-response
T1 sequence (Q03181 1-441): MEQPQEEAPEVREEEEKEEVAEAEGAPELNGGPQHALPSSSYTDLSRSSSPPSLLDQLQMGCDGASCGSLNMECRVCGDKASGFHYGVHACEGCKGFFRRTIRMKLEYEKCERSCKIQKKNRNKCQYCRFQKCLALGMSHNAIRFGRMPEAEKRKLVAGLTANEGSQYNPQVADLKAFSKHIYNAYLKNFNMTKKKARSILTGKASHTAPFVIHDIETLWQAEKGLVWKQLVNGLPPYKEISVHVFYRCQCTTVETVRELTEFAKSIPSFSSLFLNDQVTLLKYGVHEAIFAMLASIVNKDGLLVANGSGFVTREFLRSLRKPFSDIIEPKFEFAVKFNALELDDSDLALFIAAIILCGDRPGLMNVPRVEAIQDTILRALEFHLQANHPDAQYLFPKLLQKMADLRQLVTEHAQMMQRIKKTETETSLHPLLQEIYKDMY

hA1AR = settings: cited from earlier work
PPARα = target: T2, PPARα (Homo sapiens, UniProt Q07869); experiment: TR-FRET competitive binding assay PPARα; settings: for effect on PPARα binding: 4 µM, compared to positive control 19; for replacement of labeled PPARα ligand binding: up to 20 µM
T2 sequence (Q07869 200-468 limits assumed): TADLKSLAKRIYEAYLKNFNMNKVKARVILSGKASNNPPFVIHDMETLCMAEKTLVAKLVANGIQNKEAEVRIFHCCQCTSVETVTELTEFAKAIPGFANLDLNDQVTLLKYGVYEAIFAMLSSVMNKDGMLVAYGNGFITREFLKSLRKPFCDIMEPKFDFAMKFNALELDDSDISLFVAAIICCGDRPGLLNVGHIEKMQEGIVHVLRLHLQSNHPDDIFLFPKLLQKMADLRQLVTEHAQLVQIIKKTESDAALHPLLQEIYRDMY

PPARγ = target: T3, PPARγ (Homo sapiens, UniProt P37231); experiment: TR-FRET competitive binding assay PPARγ; settings: concentration-response
T3 sequence (P37231 235-505 limits assumed): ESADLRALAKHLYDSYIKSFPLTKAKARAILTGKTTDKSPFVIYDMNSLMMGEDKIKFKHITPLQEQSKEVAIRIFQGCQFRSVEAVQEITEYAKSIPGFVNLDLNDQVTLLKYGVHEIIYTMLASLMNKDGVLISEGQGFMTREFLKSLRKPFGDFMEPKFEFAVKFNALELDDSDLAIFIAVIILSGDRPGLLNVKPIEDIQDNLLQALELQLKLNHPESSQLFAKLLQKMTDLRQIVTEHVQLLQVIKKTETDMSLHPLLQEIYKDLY

GR = target: T4, GR (Homo sapiens, UniProt P04150); experiment: TR-FRET competitive binding assay GR; settings: 4 µM, compared to dexamethasone
T4 sequence (P04150 1-777): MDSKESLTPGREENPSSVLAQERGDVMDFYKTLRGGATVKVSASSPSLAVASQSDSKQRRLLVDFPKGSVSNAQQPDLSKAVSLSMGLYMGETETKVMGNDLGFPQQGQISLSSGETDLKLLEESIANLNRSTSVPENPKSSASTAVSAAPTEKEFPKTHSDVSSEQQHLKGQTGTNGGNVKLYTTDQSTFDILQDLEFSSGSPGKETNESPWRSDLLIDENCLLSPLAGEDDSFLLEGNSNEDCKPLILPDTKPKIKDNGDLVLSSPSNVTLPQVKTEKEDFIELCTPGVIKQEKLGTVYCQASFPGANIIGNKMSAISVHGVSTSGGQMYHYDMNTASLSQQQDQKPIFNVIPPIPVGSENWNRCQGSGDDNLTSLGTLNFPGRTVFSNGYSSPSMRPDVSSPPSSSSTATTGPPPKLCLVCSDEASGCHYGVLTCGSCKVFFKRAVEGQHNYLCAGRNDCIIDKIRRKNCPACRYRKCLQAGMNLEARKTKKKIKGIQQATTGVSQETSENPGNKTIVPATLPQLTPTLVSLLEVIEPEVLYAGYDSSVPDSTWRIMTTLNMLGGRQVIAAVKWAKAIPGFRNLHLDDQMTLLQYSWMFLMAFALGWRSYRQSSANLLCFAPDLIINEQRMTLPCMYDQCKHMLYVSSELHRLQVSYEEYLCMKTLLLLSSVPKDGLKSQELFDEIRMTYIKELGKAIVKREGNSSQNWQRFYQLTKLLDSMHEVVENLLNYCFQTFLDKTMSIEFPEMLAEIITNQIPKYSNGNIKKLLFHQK

LXRα = target: T5, LXRα (Homo sapiens, UniProt Q13133); experiment: TR-FRET LXRα coactivator assay; type: biochemical; settings: 4 µM, compared to positive control 20
T5 sequence (Q13133 1-447): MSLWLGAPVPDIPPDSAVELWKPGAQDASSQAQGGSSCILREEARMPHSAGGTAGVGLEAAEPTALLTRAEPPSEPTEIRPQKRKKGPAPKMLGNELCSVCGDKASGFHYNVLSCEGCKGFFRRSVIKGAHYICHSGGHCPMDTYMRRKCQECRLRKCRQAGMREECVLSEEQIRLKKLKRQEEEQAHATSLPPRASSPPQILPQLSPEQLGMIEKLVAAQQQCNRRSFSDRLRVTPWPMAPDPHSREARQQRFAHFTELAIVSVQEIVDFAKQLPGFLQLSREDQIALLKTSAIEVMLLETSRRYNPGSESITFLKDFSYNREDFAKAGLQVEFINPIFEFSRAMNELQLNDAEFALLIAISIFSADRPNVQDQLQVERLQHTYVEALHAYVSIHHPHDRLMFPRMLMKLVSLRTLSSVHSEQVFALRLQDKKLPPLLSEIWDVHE

LXRβ = target: T6, LXRβ (Homo sapiens, UniProt P55055); experiment: TR-FRET LXRβ coactivator assay; type: biochemical; settings: 4 µM, compared to positive control 20
T6 sequence (P55055 1-460): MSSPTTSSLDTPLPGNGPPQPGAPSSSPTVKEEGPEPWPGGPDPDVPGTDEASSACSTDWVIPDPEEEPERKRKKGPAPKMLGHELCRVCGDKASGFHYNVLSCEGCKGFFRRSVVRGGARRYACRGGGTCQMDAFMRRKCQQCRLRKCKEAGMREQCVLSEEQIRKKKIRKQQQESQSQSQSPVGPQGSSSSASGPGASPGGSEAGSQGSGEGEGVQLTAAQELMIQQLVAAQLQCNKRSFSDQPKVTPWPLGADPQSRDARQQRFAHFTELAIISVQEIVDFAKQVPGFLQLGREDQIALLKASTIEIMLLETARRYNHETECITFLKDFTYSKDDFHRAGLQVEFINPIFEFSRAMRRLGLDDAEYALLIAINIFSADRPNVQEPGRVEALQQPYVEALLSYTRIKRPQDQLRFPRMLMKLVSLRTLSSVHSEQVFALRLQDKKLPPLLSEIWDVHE

CDK5/p25 = CDK5/p25 (Homo sapiens, UniProt Q00535); experiment: KinaseProfiler kinase assay CDK5/p25; type: biochemical; settings: up to 20 µM, Km ATP
CDK5/p35 = CDK5/p35 (Homo sapiens, UniProt Q00535); experiment: KinaseProfiler kinase assay CDK5/p35; type: biochemical; settings: up to 20 µM, Km ATP
hBM-MSCs [2] = experiment: Oil Red O staining of lipid droplets in hBM-MSCs; type: cell-based, human; settings: compared with IDX control, 7th day
PPARδ [3] = target: T7, PPARδ (Homo sapiens, UniProt Q03181); experiment: TR-FRET PPARδ coactivator assay; type: biochemical; settings: compound alone
T7 sequence (Q03181 211-439 limits assumed): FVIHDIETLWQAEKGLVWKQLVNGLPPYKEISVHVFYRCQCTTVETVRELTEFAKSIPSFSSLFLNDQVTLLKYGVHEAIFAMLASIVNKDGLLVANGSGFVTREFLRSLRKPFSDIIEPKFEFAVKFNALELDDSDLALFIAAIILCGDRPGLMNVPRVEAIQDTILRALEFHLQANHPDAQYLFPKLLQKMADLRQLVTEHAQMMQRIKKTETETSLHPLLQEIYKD

[4] = system: STZ-induced diabetic C57BL/6J mice; experiment: STZ-induced diabetes mouse model; type: in vivo; settings: oral 20 mg/kg for 5 days, male C57BL/6J
hBM-MSCs [5] = experiment: adiponectin production during adipogenesis in hBM-MSCs; settings: compared to IDX control

CDK5/p35, sequence (Q00535 whole entry): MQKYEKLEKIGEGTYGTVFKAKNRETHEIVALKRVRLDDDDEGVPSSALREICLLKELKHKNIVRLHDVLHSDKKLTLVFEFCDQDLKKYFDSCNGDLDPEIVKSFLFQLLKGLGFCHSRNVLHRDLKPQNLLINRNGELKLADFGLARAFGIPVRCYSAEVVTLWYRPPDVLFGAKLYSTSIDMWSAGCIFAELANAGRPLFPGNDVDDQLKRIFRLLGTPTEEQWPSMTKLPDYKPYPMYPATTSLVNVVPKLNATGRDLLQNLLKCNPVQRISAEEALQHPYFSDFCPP
CDK5/p35, sequence (Q15078 2-307 partner limits assumed): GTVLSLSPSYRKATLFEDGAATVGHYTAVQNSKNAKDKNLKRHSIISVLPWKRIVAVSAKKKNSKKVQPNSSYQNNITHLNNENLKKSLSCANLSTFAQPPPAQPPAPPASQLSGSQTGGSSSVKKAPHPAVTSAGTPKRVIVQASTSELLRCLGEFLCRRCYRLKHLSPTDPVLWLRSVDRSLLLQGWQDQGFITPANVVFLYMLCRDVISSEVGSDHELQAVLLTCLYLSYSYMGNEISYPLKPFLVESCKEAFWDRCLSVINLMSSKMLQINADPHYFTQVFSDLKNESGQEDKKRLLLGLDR
CDK5/p25, sequence (Q00535 whole entry): as the sequence (Q00535 whole entry) above
CDK5/p25, sequence (Q15078 99-307 partner limits assumed): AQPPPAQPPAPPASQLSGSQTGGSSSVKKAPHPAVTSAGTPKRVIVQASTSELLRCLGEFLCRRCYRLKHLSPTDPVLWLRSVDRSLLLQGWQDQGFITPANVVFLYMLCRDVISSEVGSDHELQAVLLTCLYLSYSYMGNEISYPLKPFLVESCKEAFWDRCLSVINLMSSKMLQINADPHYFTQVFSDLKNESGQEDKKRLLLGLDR

Row | Compound | % displacement at 1 µM (hA1AR) (hA1AR) [%] | effect on PPARα binding (PPARα) | replacement of labeled PPARα ligand binding (PPARα) [%] | effect on GR binding (GR) | effect on LXRα coactivation (LXRα) | effect on LXRβ coactivation (LXRβ) | effect on CDK5/p25 kinase activity (CDK5/p25) | effect on CDK5/p35 kinase activity (CDK5/p35) | other results
1 | O=C(NC1CC1)[C@H]1S[C@@H](n2cnc3c(NCc4cccc(I)c4)ncnc32)[C@H](O)[C@@H]1O [Compound 2b, (2S,3S,4R,5R)-N-Cyclopropyl-3,4-dihydroxy-5-(6-((3-iodobenzyl)amino)-9H-purin-9-yl)tetrahydrothiophene-2-carboxamide] | – | – | – | – | – | – | – | – | Ki (hA2AAR; read-out: Ki (hA2AAR)): 15.2 ± 2.6 nM
2 | O[C@@H]1[C@H](O)CS[C@H]1n1cnc2c(NCc3cccc(Cl)c3)nc(Cl)nc21 [Compound 3b, (2R,3R,4S)-2-(2-Chloro-6-((3-chlorobenzyl)amino)-9H-purin-9-yl)tetrahydrothiophene-3,4-diol] | 38 | – | – | – | – | – | – | – | PPARδ binding activity (PPARδ [1]): maximal PPARδ binding activity; % displacement at 1 µM (hA2AAR) (hA2AAR; 1 µM): 18%
3 | O[C@@H]1[C@H](O)CS[C@H]1n1cnc2c(NCc3ccccc3Cl)nc(Cl)nc21 [Compound 3c, (2R,3R,4S)-2-(2-Chloro-6-((2-chlorobenzyl)amino)-9H-purin-9-yl)tetrahydrothiophene-3,4-diol] | 13 | – | – | – | – | – | – | – | –
4 | CNC(=O)[C@H]1O[C@@H](n2cnc3c(NCc4cccc(I)c4)nc(Cl)nc32)[C@H](O)[C@@H]1O [Compound 1b] | – | no significant effects | ≤ 50 | no significant effects | no significant effects | no significant effects | Neither 1a nor 1b affected CDK activity | Neither 1a nor 1b affected CDK activity | PPARγ binding activity (PPARγ): significant competitive binding activity
5 | CNC(=O)[C@H]1O[C@@H](n2cnc3c(NCc4cccc(I)c4)ncnc32)[C@H](O)[C@@H]1O [Compound 1a, N^6-(3-iodobenzyl)adenosine-5′-N-methyluronamide] | – | no significant effects | ≤ 50 | no significant effects | no significant effects | no significant effects | Neither 1a nor 1b affected CDK activity | Neither 1a nor 1b affected CDK activity | lipid droplets in differentiated adipocytes (ORO staining) (hBM-MSCs [2]): increased the number and size of lipid droplets; recruitment of labeled coactivator peptide to PPARδ (PPARδ [3]): no effect on the recruitment of the labeled coactivator peptide; serum triglyceride levels [4]: downregulated serum triglyceride levels; serum glucose levels ([4]; 20 mg/kg): tended to decrease serum glucose levels; adiponectin production during adipogenesis (hBM-MSCs [5]): significantly promoted adiponectin production; also recorded: upregulated adiponectin production during adipogenesis in hBM-MSCs in a concentration-dependent manner
